In ChEMBL document CHEMBL1156893, “Structure-activity relationships amongst 4-position quinoline methanol antimalarials that inhibit the growth of drug sensitive and resistant strains of Plasmodium falciparum” (Bioorg Med Chem Lett, 2010):

Tested on: Plasmodium berghei
Assay: Antimalarial activity against Plasmodium berghei infected in ICR mice (Mus musculus) assessed as delay in mortality at 160 mg/kg, perorally for 3 days
Assay type: functional, organism-based
Design: dose 160 mg/kg

CC1C(NCC(O)c2cc(C(F)(F)F)nc3c(C(F)(F)F)cccc23)CC2CC1C2(C)C (stereo not drawn)
survival time: 3 days

CC(C)CC(C)NCC(O)c1cc(C(F)(F)F)nc2c(C(F)(F)F)cccc12 (stereo not drawn)
survival time: 2 days

CSCCCNCC(O)c1cc(C(F)(F)F)nc2c(C(F)(F)F)cccc12 (stereo not drawn)
survival time: 17 days

COCCCNCC(O)c1cc(C(F)(F)F)nc2c(C(F)(F)F)cccc12 (stereo not drawn)
survival time: 9 days

OC(c1cc(C(F)(F)F)nc2c(C(F)(F)F)cccc12)C1CCCCN1 (racemic)
survival time: 17 days

CCCCNCC(O)c1cc(C(F)(F)F)nc2c(C(F)(F)F)cccc12 (stereo not drawn)
survival time: 8 days

CNCC(O)c1cc(C(F)(F)F)nc2c(C(F)(F)F)cccc12 (stereo not drawn)
survival time: 25 days

COCCNCC(O)c1cc(C(F)(F)F)nc2c(C(F)(F)F)cccc12 (stereo not drawn)
survival time: 15 days
